# Data from US9346812B2, “Substituted pyrrolopyrimidine compounds, compositions thereof, and methods of treatment therewith” (Signal Pharmaceutical LLC, priority 2013, dated 2016).
# Test system: CAL51 cell proliferation
# Experiment: Cell Titer Glo Proliferation Assay (CAL51)
# Assay type: cell-based, human
# Conditions: Homo sapiens, CAL-51; CAL51 cell proliferation, 72 h, Cell Titer Glo luminescence; read-out: Act. Level
# Description: Cell Titer Glo Proliferation Assay. Triple negative breast cancer cell line CAL51 was purchased from DSMZ. […] Allcell lines were maintained in growth media consisting of 90% high glucose Dulbecco's Modified Eagle Medium or RPMI1640 (Invitrogen), 10% fetal bovine serum (Hyclone), and 2 mM L-glutamine (Invitrogen). […] After overnight culture, compound stock (30 mM) was diluted serially in DMSO, further diluted in growth media, and was added to each well as a 10× concentrated solution in a volume of 11 μL, mixed, and allowed to incubate with cells. The compound vehicle (DMSO) was maintained at a final concentration of 0.2% in all wells. After 72 h, 100 μL of Cell Titer Glo solution (Promega) was added to each well of the 96-well plate. The plate was placed on a shaker for 2 minutes. After 10 minutes incubation, the luminescence signal was detected with Envision microplate reader (Perkin Elmer).
row,Compound,IC50 [nM]
1,"C[C@@H](O)c1cccc(-c2c[nH]c3nc(Nc4ccc(C(=O)N(C)C)cc4Cl)nc(NC4CCOCC4)c23)c1 [Example 84, (R)-3-chloro-4-(5-(3-(1-hydroxyethyl)phenyl)-4-(tetrahydro-2H-pyrazin-4-ylamino)-7H-pyrrolo [2,3-d]pyrimidin-2-ylamino)-N,N-dimethylbenzamide]",100 to 400
2,"C[C@H](O)c1cccc(-c2c[nH]c3nc(Nc4ccc(C(=O)N(C)C)cc4Cl)nc(NC4CCOCC4)c23)c1 [Example 85, (S)-3-chloro-4-(5-(3-(1-hydroxy-ethyl)phenyl)-4-(tetrahydro-2H-pyran-4-ylamino)-7H-pyrrolo[2,3-d]pyrimidin-2-ylamino)-N,N-dimethylbenzamide]",< 100
3,"Cc1nc2ccc(-c3c[nH]c4nc(Nc5ccc(C(=O)N6CCOCC6)cc5C)nc(OC5CCCC5)c34)cc2o1 [Example 86, (4-(4-(cyclopentyloxy)-5-(2-methylbenzo[d]oxazol-6-yl)-7H-pyrrolo[2,3-d]pyrimidin-2-ylamino)-3-methylphenyl) (morpholino)methanone]",100 to 400
4,"COc1nc(Nc2ccc3[nH]ncc3c2)nc2[nH]cc(-c3ccc4nc(C)oc4c3)c12 [Example 87, N-(1H-indazol-5-yl)-4-methoxy-5-(2-methylbenzo[d]oxazol-6-yl)-7H-pyrrolo[2,3-d]pyrimidin-2-amine]",100 to 400
5,"COc1nc(Nc2ccc(-c3cn[nH]c3)cc2)nc2[nH]cc(-c3ccc4nc(C)oc4c3)c12 [Example 88, N-(4-(1H-pyrazol-4-yl)phenyl)-4-methoxy-5-(2-methylbenzo[d]oxazol-6-yl)-7H-pyrrolo[2,3-d] pyrimidin-2-amine]",100 to 400
6,"COc1nc(Nc2ccc(C(=O)N(C)C)cc2C)nc2[nH]cc(-c3ccncc3)c12 [Example 89, 4-(4-methoxy-5-(pyridin-4-yl)-7H-pyrrolo[2,3-d]pyrimidin-2-ylamino)-N,N,3-trimethylbenzamide]",100 to 400
7,"CNC(=O)c1ccc(Nc2nc(OC3CCOCC3)c3c(-c4ccc5nc(C)oc5c4)c[nH]c3n2)c(OC)c1 [Example 90, 3-methoxy-N-methyl-4-(5-(2-methylbenzo[d]oxazol-6-yl)-4-(tetrahydro-2H-pyran-4-yloxy)-7H-pyrrolo[2,3-d]pyrimidin-2-ylamino)benzamide]",< 100
8,"COc1cc(C(=O)N(C)C)ccc1Nc1nc(OC2CCCC2)c2c(-c3ccc4nc(C)oc4c3)c[nH]c2n1 [Example 91, 4-(4-(cyclopentyloxy)-5-(2-methylbenzo[d]oxazol-6-yl)-7H-pyrrolo[2,3-d]pyrimidin-2-ylamino)-3-methoxy-N,N-dimethylbenzamide]",100 to 400
9,"Cc1nc2ccc(-c3c[nH]c4nc(Nc5ccc(C(=O)N(C)C)cc5C)nc(O[C@H]5CC[C@H](O)CC5)c34)cc2o1 [Example 92, 4-(4-((1r,4r)-4-hydroxycyclo-hexyloxy)-5-(2-methylbenzo[d]oxazol-6-yl)-7H-pyrrolo[2,3-d]pyrimidin-2-ylamino)-N,N,3-trimethylbenzamide]",< 100
10,"Cc1cc(C(=O)N(C)C)ccc1Nc1nc(OC2CCOCC2)c2c(-c3ccncc3)c[nH]c2n1 [Example 93, N,N,3-trimethyl-4-(5-(pyridin-4-yl)-4-(tetrahydro-2H-pyran-4-yloxy)-7H-pyrrolo[2,3-d]pyrimidin-2-ylamino)benzamide]",< 100
11,"CNC(=O)c1ccc(Nc2nc(OC3CCCC3)c3c(-c4ccc5nc(C)oc5c4)c[nH]c3n2)c(C)c1 [Example 94, 4-(4-(cyclopentyloxy)-5-(2-methylbenzo[d]oxazol-6-yl)-7H-pyrrolo[2,3-d]pyrimidin-2-ylamino)-N,3-dimethylbenzamide]",400 to 1000
12,"Cc1nc2ccc(-c3c[nH]c4nc(Nc5ccc(C(=O)N(C)C)cc5C)nc(OC5CCN(C)CC5)c34)cc2o1 [Example 95, N,N,3-trimethyl-4-(5-(2-methylbenzo[d]oxazol-6-yl)-4-(1-methylpiperidin-4-yloxy)-7H-pyrrolo[2,3-d]pyrimidin-2-ylamino)benzamide]",400 to 1000
13,"COc1cc(C(=O)N2CCOCC2)ccc1Nc1nc(OC2CCCC2)c2c(-c3ccc4nc(C)oc4c3)c[nH]c2n1 [Example 96, (4-(4-(cyclopentyloxy)-5-(2-methylbenzo[d]oxazol-6-yl)-7H-pyrrolo[2,3-d]pyrimidin-2-ylamino)-3-methoxyphenyl)(morpholino) methanone]",400 to 1000
14,"Cc1nc2ccc(-c3c[nH]c4nc(Nc5ccc(C(=O)N(C)C)cc5C)nc(OC5CCNCC5)c34)cc2o1 [Example 97, N,N,3-trimethyl-4-(5-(2-methylbenzo[d]oxazol-6-yl)-4-(piperidin-4-yloxy)-7H-pyrrolo [2,3-d]pyrimidin-2-ylamino) benzamide]",1000 to 10000
15,"Cc1nc2ccc(-c3c[nH]c4nc(Nc5ccc(C(=O)N(C)C)cc5C)nc(O[C@H]5CCOC5)c34)cc2o1 [Example 98, (S)-N,N,3-trimethyl-4-(5-(2-methylbenzo[d]oxazol-6-yl)-4-(tetrahydrofuran-3-yloxy)-7H-pyrrolo[2,3-d]pyrimidin-2-ylamino)benzamide]",< 100
16,"Cc1nc2ccc(-c3c[nH]c4nc(Nc5ccc(C(=O)N(C)C)cc5C)nc(O[C@@H]5CCOC5)c34)cc2o1 [Example 99, (R)-N,N,3-trimethyl-4-(5-(2-methylbenzo[d]oxazol-6-yl)-4-(tetrahydrofuran-3-yloxy)-7H-pyrrolo[2,3-d]pyrimidin-2-ylamino)benzamide]",< 100
17,"COc1cc(C(=O)NCCN)ccc1Nc1nc(OC2CCCC2)c2c(-c3ccc4nc(C)oc4c3)c[nH]c2n1 [Example 100, N-(2-aminoethyl)-4-(4-(cyclopentyl-oxy)-5-(2-methylbenzo[d]oxazol-6-yl)-7H-pyrrolo[2,3-d]pyrimidin-2-ylamino)-3-methoxybenzamide]",< 100
18,"CCOc1ccc(-c2c[nH]c3nc(Nc4ccc(C(=O)NC)cc4OC)nc(OC4CCOCC4)c23)cn1 [Example 102, 4-(5-(6-ethoxypyridin-3-yl)-4-(tetrahydro-2H-pyran-4-yloxy)-7H-pyrrolo[2,3-d]pyrimidin-2-ylamino)-3-methoxy-N-methylbenzamide]",100 to 400
19,"COc1ccccc1Nc1nc(OC2CCCC2)c2c(-c3ccc4nc(C)oc4c3)c[nH]c2n1 [Example 103, 4-(cyclopentyloxy)-N-(2-methoxyphenyl)-5-(2-methylbenzo[d]oxazol-6-yl)-7H-pyrrolo[2,3-d]pyrimidin-2-amine]",100 to 400
20,"Cc1nc2ccc(-c3c[nH]c4nc(Nc5ccc(C(=O)N(C)C)cc5C)nc(O[C@H]5CCCOC5)c34)cc2o1 [Example 104, (S)-N,N,3-trimethyl-4-(5-(2-methylbenzo[d]oxazol-6-yl)-4-(tetrahydro-2H-pyran-3-yloxy)-7H-pyrrolo[2,3-d]pyrimidin-2-ylamino)benzamide]",< 100
21,"Cc1cc(C(=O)N(C)C)ccc1Nc1nc(OC2CCOCC2)c2c(-c3cccc(S(C)(=O)=O)c3)c[nH]c2n1 [Example 105, N,N,3-trimethyl-4-(5-(3-(methylsulfonyl)phenyl)-4-(tetrahydro-2H-pyran-4-yloxy)-7H-pyrrolo[2,3-d]pyrimidin-2-ylamino)benzamide]",< 100
22,"CNC(=O)c1ccc(Nc2nc(OC3CCOCC3)c3c(-c4cccc(S(C)(=O)=O)c4)c[nH]c3n2)c(OC)c1 [Example 106, 3-methoxy-N-methyl-4-(5-(3-(methylsulfonyl)phenyl)-4-(tetrahydro-2H-pyran-4-yloxy)-7H-pyrrolo[2,3-d]pyrimidin-2-ylamino)benzamide]",< 100
